From PMC4076079, “Selective inhibitors of a PAF biosynthetic enzyme lysophosphatidylcholine acyltransferase 2” (Journal of Lipid Research, 2014) come the findings set out here.

One experiment deals with T1, mLPCAT2 (Mus musculus, UniProt Q8BYI6).
T1 construct: expressed in transfected cells; host or cells: CHO-S-PAFR cells, microsomal fraction, with or without mcPAF stimulation
T1 sequence (Q8BYI6 1-544): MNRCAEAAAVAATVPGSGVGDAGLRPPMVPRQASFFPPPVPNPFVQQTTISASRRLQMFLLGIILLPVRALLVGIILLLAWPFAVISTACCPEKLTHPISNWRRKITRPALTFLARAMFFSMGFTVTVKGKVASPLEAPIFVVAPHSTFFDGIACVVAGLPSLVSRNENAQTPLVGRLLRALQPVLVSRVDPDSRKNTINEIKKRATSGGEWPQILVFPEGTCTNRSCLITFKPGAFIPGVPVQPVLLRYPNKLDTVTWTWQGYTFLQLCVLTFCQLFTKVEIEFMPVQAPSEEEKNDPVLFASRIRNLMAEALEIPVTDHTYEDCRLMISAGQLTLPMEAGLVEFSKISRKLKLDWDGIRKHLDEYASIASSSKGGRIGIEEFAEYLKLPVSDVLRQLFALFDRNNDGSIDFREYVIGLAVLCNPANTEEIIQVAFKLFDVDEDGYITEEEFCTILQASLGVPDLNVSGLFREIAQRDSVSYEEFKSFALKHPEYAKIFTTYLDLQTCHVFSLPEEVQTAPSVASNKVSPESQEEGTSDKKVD
Put plainly: lyso-PAFAT (acetyltransferase) activity assay, PAF product. It is filed as biochemical. Particulars: 20 μM compound; microsomal fractions of nonstimulated CHO-S-PAFR cells; n = 3, mean ± SEM. As for the experimental part: (§1) Microsomal protein fractions (0.5 μg) supplemented with the indicated compound concentrations were added to the reaction mixture containing 100 mM Tris-HCl (pH 7.4), 1 μM CaCl2, 0.015% Tween-20, and two substrates. For acetyltransferase activity, the substrates were 1 mM acetyl-CoA and 5 μM d4-lyso-PAF; for the acyltransferase activity of LPCAT1 or LPCAT2, the substrates were, respectively, palmitoyl-CoA and d31-16:0 LPC or arachidonoyl-CoA and d4-lyso-PAF (all 5 μM). Each lysophospholipid contained fatty acid at the sn-1 position. After incubation at 37°C for 5 min, the reactions were stopped by adding 300 μl methanol containing 17:0 LPC or 14:0/14:0 PC as an internal standard. Deuterium-labeled products were analyzed by LC-MS/MS (Waters, Milford, MA and Thermo Scientific, Waltham, MA). […]
(§2) arachidonoyl-CoA, 5 µM; palmitoyl-CoA, 5 µM; d4-lyso-PAF, 5 µM; and d31-LPC, 5 µM. […]
(§3) deuterium-labeled products were measured by LC-MS/MS. […]
(§4) Step 7 screening: species-specific differences
(§5) To evaluate the effects on the activity of mouse or human LPCAT1 and LPCAT2, each microsomal fraction was obtained using CHO-S-PAFR cells with or without mcPAF (200 nM) stimulation for 5 min. Acetyltransferase and acyltransferase assays were performed with 20 µM of each compound. Percentage inhibition was calculated in each

The next experiment has as its target T2, mLPCAT1 (Mus musculus, UniProt Q3TFD2).
T2 construct: expressed in transfected cells; host or cells: CHO-S-PAFR cells, microsomal fraction
T2 sequence (Q3TFD2 1-534): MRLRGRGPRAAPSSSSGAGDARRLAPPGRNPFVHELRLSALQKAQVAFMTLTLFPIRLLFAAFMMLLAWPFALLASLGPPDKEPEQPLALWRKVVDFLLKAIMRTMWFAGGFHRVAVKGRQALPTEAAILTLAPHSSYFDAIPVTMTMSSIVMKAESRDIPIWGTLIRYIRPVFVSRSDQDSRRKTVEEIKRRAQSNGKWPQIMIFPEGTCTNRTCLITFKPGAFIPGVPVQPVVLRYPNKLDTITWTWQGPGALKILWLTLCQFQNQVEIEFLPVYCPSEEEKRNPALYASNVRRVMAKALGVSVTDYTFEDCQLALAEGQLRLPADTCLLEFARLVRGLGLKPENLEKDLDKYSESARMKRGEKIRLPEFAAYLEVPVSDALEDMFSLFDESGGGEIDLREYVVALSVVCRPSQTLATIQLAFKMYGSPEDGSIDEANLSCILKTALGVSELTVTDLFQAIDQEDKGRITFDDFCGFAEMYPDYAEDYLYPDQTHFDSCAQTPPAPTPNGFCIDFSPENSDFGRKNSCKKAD
Described as above. It is filed as biochemical. The settings on record: 20 μM compound; microsomal fractions of nonstimulated CHO-S-PAFR cells; n = 3, mean ± SEM. The method, then:
as §1, §2, §3, §4, §5

In the next experiment the test system is RAW-mLPCAT2 cells. Description: cell-based assay: A23187-induced PAF production, PAF and lyso-PAF by LC-MS/MS. Also noted: species or system mouse. The settings on record: for pIC50: Mus musculus. As for the experimental part: RAW-mLPCAT2 cells and peritoneal macrophages were seeded in 24-well plates (4 × 10^6 cells/well) for 24 or 2 h, respectively, before treatment. RAW-mLPCAT2 cells were stimulated with 5 μM A23187 for 5 min after a 1 h treatment with the compounds. Peritoneal macrophages were preincubated with 100 ng/ml LPS for 18 h, treated with the compounds for 1 h, and stimulated with 5 μM A23187 for 5 min. To analyze cellular PAF levels, lipids were extracted with 500 μl methanol containing d4-PAF and d4-lyso-PAF as internal standards. Each sample was submitted to solid phase extraction using an Oasis HLB 96-well cartridge cluster (Waters), and PAF and lyso-PAF were measured by LC-MS/MS as previously described ([13]).
Chromatography was performed using an Acquity™ Ultra-performance LC system (Waters) coupled to a TSQ Vantage triple stage quadrupole mass spectrometer (Thermo Scientific) with a HESI-II electrospray ionization source ([13]). Phospholipids were separated on BEH C8 columns (1.7 μm, 2.1 × 30 mm or 1 × 100 mm; Waters) for the analysis of assay products or the composition of cellular PAF and lyso-PAF, respectively. The mobile phase contained 20 mM aqueous ammonium bicarbonate and acetonitrile. The extracts from peritoneal macrophages were separated on a Kinetex C8 column (1.7 μm, 2.1 × 100 mm; Phenomenex, Torrance, CA) by a gradient elution with 0.05% formic acid-water and acetonitrile, using the Nexera X2 system and LCMS-8080 mass spectrometer (Shimadzu, Kyoto, Japan) ([13]). Lyso-PAF, d4-PAF, and d31-DPPC were identified by the choline fragment (m/z 184) as a product ion of selected reaction monitoring in the positive ion mode. Nonlabeled PAF and d4-16:0/20:4 alkyl-PC were determined by fatty acid anions of sn-2 composition (m/z 59 and 303, respectively) in the negative ion mode. Mass spectra were processed using the Xcalibur 2.0 (Thermo Scientific) or LabSolutions 5.50 (Shimadzu) software. Signal intensities were determined relative to the internal standard or as the percentage of the positive control. […]
Step 9 screening: cell-based assay
RAW-mLPCAT2 cells were treated with compounds for 1 h and analyzed after 5 min stimulation with A23187. The assays were performed with 0, 0.2, 0.6, 20, and 50 or 60 µM of compound. PAF concentration was measured by LC-MS/MS.
The data were normalized to each positive control (100% activation). Percentage inhibition or IC50 were determined in each screening step. To assess screening quality, the percentage coefficient of variance and the Z’ factor was calculated for each plate or each assay as described previously (2).

Setting [1] is: 1 h pretreatment, 5 μM A23187 for 5 min.
Setting [2] is: screening step 9 (n = 2), 1 h compound, 5 min A23187, read-out: IC50, A23187-induced PAF production.

Structures are written as SMILES. pIC50: −log10 of the molar value. Where two headings read alike, the source gives them in different places.

`CC(C)OC(=O)c1ccc(N2C(=O)C(Cl)=C(Nc3ccccc3O)C2=O)cc1` [TSI-07]: the “percentage inhibition, product PAF, mLPCAT2” value at mLPCAT2 is given as 84.1 ± 6.4 percentage. Also, the “percentage inhibition, product PAF, mLPCAT1” value on mLPCAT1 came out at 33.6 ± 6.1 percentage. In the experiment with RAW-mLPCAT2 cells (setting [1]), the “A23187-induced PAF production” value was “suppressed” and the lyso-PAF level result is listed as “decreased”.

As to `CCCCOC(=O)c1ccc(N2C(=O)C(Cl)=C(Cl)C2=O)cc1` [TSI-11, butyl 4-(3,4-dichloro-2,5-dioxopyrrol-1-yl)benzoate], the “percentage inhibition, product PAF, mLPCAT2” value on mLPCAT2 is given as 98.9 ± 0.3 percentage. Further, the “percentage inhibition, product PAF, mLPCAT1” value on mLPCAT1 was determined as 89.3 ± 1.1 percentage. Moreover, in the experiment with RAW-mLPCAT2 cells (setting [1]), the “A23187-induced PAF production” value was “suppressed” and the lyso-PAF level entry is “not changed”.

Turning to `CCCOC(=O)c1ccc(N2C(=O)C(Cl)=C(Cl)C2=O)cc1` [TSI-10], at mLPCAT2, the “percentage inhibition, product PAF, mLPCAT2” value was 99.1 ± 0.2 percentage. Besides, the “percentage inhibition, product PAF, mLPCAT1” value at mLPCAT1 was 89.6 ± 1.1 percentage. For the same compound, in the experiment with RAW-mLPCAT2 cells (setting [1]), the “A23187-induced PAF production” value was “suppressed” and the lyso-PAF level result is given as “increased”.

For the compound `O=C1C(Cl)=C(N2CCOCC2)C(=O)N1c1ccc(Oc2ccccc2)cc1` [TSI-02, 3-chloro-4-morpholin-4-yl-1-(4-phenoxyphenyl)pyrrole-2,5-dione], the negative-log IC50 (pIC50) (commonly the negative decadic logarithm of the IC50, by convention in mol/L) in the experiment with RAW-mLPCAT2 cells (setting [2]) is 4.63.

Consider `CC(C)OC(=O)c1ccc(N2C(=O)C(Cl)=C(Cl)C2=O)cc1` [TSI-01, propan-2-yl 4-(3,4-dichloro-2,5-dioxopyrrol-1-yl)benzoate], for which, at mLPCAT2, the “percentage inhibition, product PAF, mLPCAT2” value came out at 99.2 ± 0.2 percentage. Also, the “percentage inhibition, product PAF, mLPCAT1” value on mLPCAT1 is on record as 89.2 ± 1.8 percentage. Besides, in the experiment on RAW-mLPCAT2 cells (setting [1]), the “A23187-induced PAF production” value is listed as “suppressed” and the lyso-PAF level entry is “increased”. The negative logarithm of the IC50 (pIC50) in the experiment with RAW-mLPCAT2 cells (1 h pretreatment, 5 μM A23187 for 5 min, Fig. 4, three independent experiments, read-out: IC50, inhibition of PAF production) is 4.41. For the same compound, the pIC50 in the experiment on RAW-mLPCAT2 cells (setting [2]) is 4.55.
